According to publication PMC3466212, “Novel AChE Inhibitors for Sustainable Insecticide Resistance Management” (PLoS ONE, 2012):

Experiments:
[1] = system: C. pipiens SR strain larvae; assay: Larval bioassay, SR strain (OP-resistant); conditions: fourth-instar larvae, 24 hours exposure, 300 µM
Source text: (§1) Three C. pipiens strains were used: the susceptible reference Slab strain, homozygous for ace-1 ^S [39], the resistant reference SR strain, carrying the genetical background of Slab but homozygous for the G119S mutation, allele ace-1 ^R [21] and the Ducos strain, carrying the genetical background of Slab but homozygous for an ace-1 duplication, with one ace-1^S and ace-1^R copy in tandem. Culex pipiens heterozygous larvae (Slab×SR) were obtained by crossing Slab males and SR females.
(§2) Insecticidal activity was determined by performing bioassays on fourth-instar larvae as described in [42]. Each compound was dissolved in ethanol. Propoxur (CX) and chlorpyrifos (OP) were used as references. For each compound, we first tested mortality after a 24-hour exposure at 300 µM. […] Mortality data were analyzed by the log-probit program.

WT AChE1 = WT AChE1 (Culex pipiens, UniProt Q86GC8); assay: AChE assay (Ellman), dose-response on recombinant WT AChE1; format: biochemical; set-up: made in house; host or cells: Drosophila S2 cells; conditions: recombinant wild-type C. pipiens AChE1; 15 min incubation; acetylthiocholine; read-out: IC50 WT
Procedure: (§3) Production of C. pipiens WT and mutated AChE1s in Drosophila S2 cells was already described. The chemical library (ChemBridge, 3,000 compounds) screening was performed in duplicate on G119S recombinant AChE1. Chemicals were made soluble in ethanol or dimethylsulphoxide (DMSO), and then diluted at 300 µM in ethanol for storage. Compounds (30 µM final concentration) were incubated for 15 min at room temperature with 100 µl of G119S recombinant AChE1 then 100 µl of substrate (acetylthiocholine, 1.6 mM, Sigma-Aldrich) was added and the residual activity was quantified by measuring the optical density at 412 nm, as described by Ellman et al.. PTF analogs were analyzed in dose-response experiments (10-fold serial dilutions from 3 mM to 30 nM), using recombinant WT and G119S AChE1 or mosquito head extracts (heads cut from frozen mosquitoes, homogenized in 400 µl PB containing 1% Triton X-100 and cleared by centrifugation at 9,000×g for 3 min). Depending on compound availability, two to five replicates were performed with distinct batches of enzyme. […] IC50 was estimated by nonlinear least square regression. IC50 was also measured on AChE1 from susceptible and resistant mosquito larvae extracts.

G119S AChE1 = target: T1, G119S AChE1 (Culex pipiens, UniProt Q86GC8, G247S); assay: biochemical; format: biochemical; conditions: for IC50: recombinant OP-insensitive G119S C. pipiens AChE1, 15 min incubation, acetylthiocholine, read-out: IC50 G119S
T1 construct: made in house; host or cells: Drosophila S2 cells
Procedure: as §3, with “Compounds (30 µM final concentration) were incubated for 15 min at room temperature with 100 µl of G119S recombinant AChE1 then 100 µl of substrate (acetylthiocholine, 1.6 mM, Sigma-Aldrich) was added and the residual activity was quantified by measuring the optical density at 412 nm, as described by Ellman et al..” left out

[2] = system: C. pipiens Slab strain larvae; assay: Larval bioassay, Slab strain (OP-susceptible); conditions: fourth-instar larvae, 24 hours exposure, 300 µM
Source text: as §1, with “females. Two A. gambiae reference strains (S molecular form) were used: the susceptible strain Kisumu, homozygous for ace-1 ^S, collected in Kenya in 1953 and maintained since then under laboratory conditions and the resistant Acerkis strain, carrying the genetical background of Kisumu but homozygous for an ace-1^R allele from a population collected in Bobo-Dioulasso, Burkina Faso [41].” for “females.”
as §2, with “program. This program takes into account natural mortality and provides lethal doses (LD) and slopes for each mortality line; it also computes resistance ratios (RR) for each LD, with 95% confidence intervals.” for “program.”

Structure (SMILES) | Mortality at 300 µM, SR [1] [%] | IC50 (WT AChE1) [µM] | IC50 (G119S AChE1) [µM] | Mortality at 300 µM, Slab [2] [%] | inhibition in primary screen (hydrolysis of acetylthiocholine) (G119S AChE1; 30 µM final concentration, duplicate, G119S recombinant AChE1)
Cc1ccc(C=C2C(=O)NC(=O)N(c3cccc(Cl)c3Cl)C2=O)o1 [PTF-21] | 0 | 5 | 4.8 | 0 | 
Cc1ccc(C=C2C(=O)NC(=O)N(c3cccc(Br)c3)C2=O)o1 [PTF-22] | 97 | 1.5 | 1.9 | 68 | 
CCCCN1C(=O)C(=Cc2ccc(C)o2)C(=O)NC1=S [PTF-23] | 60 | 12.1 | 15.5 | 24 | 
Cc1ccc(N2C(=O)C(=Cc3ccc(C)o3)C(=O)NC2=S)cc1 [PTF-24] | 0 | 1.3 | 1.9 | 0 | 80–87%
CCc1ccc(N2C(=O)C(=Cc3ccc(C)o3)C(=O)NC2=S)cc1 [PTF-26] | 65 | 9 | 16 | 100 | 
COc1ccc(N2C(=O)C(=Cc3ccc(C)o3)C(=O)NC2=S)cc1 [PTF-27] | 15 | 1.7 | 5.9 | 12 | 
COc1ccccc1N1C(=O)C(=Cc2ccc(C)o2)C(=O)NC1=S [PTF-28] | 0 | 2.1 | 1.8 | 0 | 
COc1ccc(N2C(=O)C(=Cc3ccc(C)o3)C(=O)NC2=S)c(OC)c1 [PTF-30] | 25 | 2.8 | 1.3 | 25 | 
Cc1ccc(C=C2C(=O)NC(=S)N(c3ccc(C(=O)O)cc3)C2=O)o1 [PTF-31] | 20 | 0.5 | 0.2 | 20 | 
Cc1ccc(C=C2C(=O)NC(=S)N(CC3CCCO3)C2=O)o1 (centres unmarked) [PTF-32] | 0 | 2.1 | 2.3 | 0 | 
Cc1ccc(C=C2C(=O)NC(=S)N(c3ccc(F)cc3)C2=O)o1 [PTF-33] | 77 | 490 | 22 | 16 | 
Cc1ccc(C=C2C(=O)NC(=S)N(CCc3ccc(F)cc3)C2=O)o1 [PTF-34] | 0 | 24 | 38 | 0 | 
Cc1ccc(C=C2C(=O)NC(=S)N(c3ccc(Cl)cc3)C2=O)o1 [PTF-35] | 49 | 8.7 | 8.7 | 5 | 
Cc1ccc(C=C2C(=O)NC(=S)N(c3cccc(Cl)c3)C2=O)o1 [PTF-36] | 40 | 11.8 | 8 | 30 | 
Cc1ccc(C=C2C(=O)NC(=S)N(c3ccc(Br)cc3)C2=O)o1 [PTF-37] | 35 | 2120 | 142 | 0 | 
CN1C(=O)C(=Cc2ccco2)C(=O)N(C)C1=O [PTF-38] | 90 | 1190 | 357 | 70 | 
CN1C(=O)C(=Cc2ccc([N+](=O)[O-])o2)C(=O)N(C)C1=O [PTF-40] | 0 | 83 | 55 | 0 | 

Structure (SMILES) | Mortality at 300 µM, SR [1] [%] | IC50 (WT AChE1) [µM] | IC50 (G119S AChE1) [µM] | Mortality at 300 µM, Slab [2] [%] | inhibition in primary screen (hydrolysis of acetylthiocholine) (G119S AChE1; 30 µM final concentration, duplicate, G119S recombinant AChE1)
CN1C(=O)C(=Cc2ccc(N(C)C)o2)C(=O)N(C)C1=O [PTF-41] | 20 | 175 | 132 | 20 | 
CCN(CC)c1ccc(C=C2C(=O)N(C)C(=O)N(C)C2=O)o1 [PTF-42] | 0 | 720 | 1040 | 0 | 
CN1C(=O)C(=Cc2ccc(-c3ccccc3C(=O)O)o2)C(=O)N(C)C1=O [PTF-43] | 0 | 6.7 | 8.3 | 0 | 
CN1C(=O)C(=Cc2ccc(-c3cccc(C(=O)O)c3)o2)C(=O)N(C)C1=O [PTF-44] | 0 | 0.6 | 0.6 | 0 | 
CC(=O)c1ccc(-c2ccc(C=C3C(=O)N(C)C(=O)N(C)C3=O)o2)cc1 [PTF-45] | 0 | 3.4 | 1.1 | 0 | 
CN1C(=O)C(=Cc2ccc(-c3ccc(S(N)(=O)=O)cc3)o2)C(=O)N(C)C1=O [PTF-46] | 0 | 1.7 | 5.2 | 0 | 
CN1C(=O)C(=Cc2ccc(Sc3ccccc3)o2)C(=O)N(C)C1=O [PTF-47] | 0 | 3 | 1.3 | 0 | 
CN1C(=O)C(=Cc2ccc(N3CCCC3)o2)C(=O)N(C)C1=O [PTF-48] | 0 | 755 | 1520 | 0 | 
CN1C(=O)C(=Cc2ccc(N3CCCCC3)o2)C(=O)N(C)C1=O [PTF-49] | 0 | 97 | 65.5 | 13 | 
CN1C(=O)C(=Cc2ccc(N3CCOCC3)o2)C(=O)N(C)C1=O [PTF-50] | 0 | 260 | 145 | 0 | 
CN1CCN(c2ccc(C=C3C(=O)N(C)C(=O)N(C)C3=O)o2)CC1 [PTF-52] | 0 | 860 | 52 | 0 | 
CN1C(=O)C(=Cc2ccc(-c3ccc4c(c3)COC4=O)o2)C(=O)N(C)C1=O [PTF-53] | 0 | 0.6 | 5.6 | 0 | 
O=C1NC(=O)N(c2ccccc2)C(=O)C1=Cc1ccco1 [PTF-54] | 100 | 1390 | 737 | 100 | 
O=C1NC(=O)N(c2ccccc2)C(=O)C1=Cc1ccc(Br)o1 [PTF-55] | 0 | 17 | 32.6 | 0 | 
CCOC(=O)c1ccc(-c2ccc(C=C3C(=O)NC(=O)N(c4ccccc4)C3=O)o2)cc1 [PTF-56] | 0 | 4.9 | 1.9 | 0 | 
O=C1NC(=O)N(c2ccccc2)C(=O)C1=Cc1ccc(-c2ccc(C(=O)O)cc2)o1 [PTF-57] | 0 | 11.3 | 5.4 | 0 | 
O=C1NC(=O)N(c2ccccc2)C(=O)C1=Cc1ccc(-c2cccc(C(=O)O)c2)o1 [PTF-58] | 0 | 6.7 | 9.3 | 0 | 
